US6869956B2, “Methods of treating inflammatory and immune diseases using inhibitors of IκB kinase (IKK)” (Bristol-Myers Squibb Company, priority 2000, dated 2005)
Where a name gives a salt, the structure may show the parent alone.

What was measured:
[1] = target: T1, recombinantly expressed IKK-1 (Homo sapiens, UniProt O15111); test: IKK-1 enzyme assay (33P-ATP / IκB-α phosphorylation); type: biochemical; conditions: 33P-labeled ATP and IκB-α as substrates
T1 construct: made in house
T1 sequence (O15111 1-745): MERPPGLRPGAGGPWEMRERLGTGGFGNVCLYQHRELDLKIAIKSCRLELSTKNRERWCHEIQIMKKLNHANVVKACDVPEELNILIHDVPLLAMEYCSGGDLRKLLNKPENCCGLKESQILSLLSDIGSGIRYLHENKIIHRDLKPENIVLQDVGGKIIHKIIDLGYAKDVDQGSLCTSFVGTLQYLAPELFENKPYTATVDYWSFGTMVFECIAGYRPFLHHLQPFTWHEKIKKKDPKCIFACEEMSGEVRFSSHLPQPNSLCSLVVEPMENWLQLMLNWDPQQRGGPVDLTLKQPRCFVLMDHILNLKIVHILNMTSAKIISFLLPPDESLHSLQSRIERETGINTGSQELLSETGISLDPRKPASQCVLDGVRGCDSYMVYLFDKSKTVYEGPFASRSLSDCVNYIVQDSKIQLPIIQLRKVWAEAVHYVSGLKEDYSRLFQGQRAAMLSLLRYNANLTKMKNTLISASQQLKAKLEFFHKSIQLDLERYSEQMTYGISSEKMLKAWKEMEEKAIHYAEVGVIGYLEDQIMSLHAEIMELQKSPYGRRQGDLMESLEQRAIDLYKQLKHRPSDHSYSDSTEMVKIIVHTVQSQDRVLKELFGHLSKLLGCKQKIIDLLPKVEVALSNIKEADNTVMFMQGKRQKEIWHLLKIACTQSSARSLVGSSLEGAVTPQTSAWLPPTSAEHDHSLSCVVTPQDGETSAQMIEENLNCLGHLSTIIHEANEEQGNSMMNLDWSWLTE
Description: In this assay, test compound was added to a solution of 0.5 mM IκB-α in 40 mM Tris-HCl, pH 8, containing 4 mM MgCl2, 1 mM dithiothreitol, and 2 mM ^33P-labeled ATP. IKK enzyme (either the multisubunit complex from HeLa cells, recombinantly expressed IKK-1, or recombinantly expressed IKK-2) was then added to initiate the reaction. The multisubunit complex was isolated according to the procedure of Lee et al. [(1997) Cell 88:213-222] or Mercurio et al. [(1997) 278:860-866]. The recombinant IKK-1 and IKK-2 were expressed using the procedure of Burke et al. [(1999) J. Biol. Chem. 274:36146-36152]. After incubating for 10 minutes at 30° C., the reaction was quenched by the addition of EDTA to a final concentration of 30 mM. In order to separate the phosphorylated IκB-α (Santa Cruz Biotechnology; Santa Cruz, Calif.) product from unreacted ATP, sodium dodecylsulfate polyacrylamide gel electrophoresis (SDS-PAGE) was performed. Phosphoimager analysis of the amount of ^33P incorporation into IκB-α was executed using a Molecular Dynamics 445 Phosphoimager, and the inhibition of IKK activity by the test compound was calculated from control samples containing no inhibitor.

| Compound | melting point | IC50 [1] |
| --- | --- | --- |
| CNCCNc1nc2cc3ccccc3cc2n2c(C)cnc12 (as salt: hydrochloride) [Example 13, 1-methyl-4-(2-N-methylaminoethylamino)benzo[g]imidazo[1,2-a]quinoxaline Hydrochloride] | 265 to 275 °C (dec.) |  |
| CNc1nc2cc3ccccc3cc2c2c(C)cnn12 [Example 14, 1-methyl-4-methylaminobenzo[g]pyrazolo[1,5-c]quinazoline] |  | 670 nM |
| CNc1nc2cc3ccccc3cc2c2c1ncn2C [Example 16, 1-methyl-4-methylaminobenzo(g)imidazo(4,5-c)quinoline] |  | 800 nM |
| Cn1cnc2c(NCCN)nc3cc4ccccc4cc3c21 [Example 17] |  | 1000 nM |
| Cc1cnc2c(NCCO)nc3cc4ccccc4cc3n12 [Example 18, 1-methyl-4-(2-hydroxyethylamino)benzo[g]imidazo[1,2-a]quinoxaline] | 186 to 188 °C |  |

Further compounds by falling IC50 [1], results first:

| melting point | IC50 [1] | Compound |
| --- | --- | --- |
| 170 to 172 °C | 1700 nM | Cc1cnc2c(NCCN3CCCCC3)nc3cc4ccccc4cc3n12 [Example 19, 1-methyl-4-(2-piperidin-1-yl-ethylamino)benzo[g]imidazo[1,2-a]quinoxaline] |
|  | 350 nM | CNCCNc1nc2cc3ccccc3cc2n2c(C)cnc12 [Example 13, 1-methyl-4-(2-N-methylaminoethylamino)benzo[g]imidazo[1,2-a]quinoxaline Hydrochloride] |
| 201 to 202 °C | 230 nM | CNc1nc2cc3ccccc3cc2n2c(C)cnc12 [Example 12, 1-methyl-4-methylaminobenzo[g]imidazo[1,2-a]quinoxaline] |
